# Results: US20240150377A1, “MODULATORS OF CYSTIC FIBROSIS TRANSMEMBRANE CONDUCTANCE REGULATOR” (VERTEX PHARMACEUTICALS INCORPORATED, priority 2020, published 2024)
# Molecular target: T1, CFTR (Homo sapiens, UniProt P13569, DEL508-508)
# T1 construct: endogenous in cells; host or cells: primary human bronchial epithelial cells from CF subjects (F508del/MF-HBE), differentiated at air-liquid interface
# Experiment: HBE2 assay: Ussing chamber assay of CFTR-mediated short-circuit currents
# Format: cell-based
# Settings: F508del/MF-HBE cells, 18-24 hours, 20% human serum; for Emax: read-out: HBE2 Max activity (%)
# Protocol: Ussing Chamber Assay of CFTR-Mediated Short-Circuit Currents
# After four days the apical media was removed, and the cells were grown at an air liquid interface for >14 days prior to use.
# To isolate the CFTR-mediated short-circuit (ISC) current, F508del/MF-HBE grown on Costar® Snapwell™ cell culture inserts were mounted in an Ussing chamber and the transepithelial ISC was measured under voltage-clamp recording conditions (Vhold=0 mV) at 37° C. […] The CFTR-mediated ISC (μA/cm^2) for each condition was determined from the peak forskolin response to the steady-state current following inhibition.
# Identification of Corrector Compounds
# The activity of the CFTR corrector compounds on the CFTR-mediated ISC was determined in Ussing chamber studies as described above.
# [1] = 3 μM corrector, with 44 nM potentiator
# [2] = corrector at a range of concentrations with 44 nM potentiator
# T1 sequence (P13569 with tags, fused parts or gaps DEL508-508): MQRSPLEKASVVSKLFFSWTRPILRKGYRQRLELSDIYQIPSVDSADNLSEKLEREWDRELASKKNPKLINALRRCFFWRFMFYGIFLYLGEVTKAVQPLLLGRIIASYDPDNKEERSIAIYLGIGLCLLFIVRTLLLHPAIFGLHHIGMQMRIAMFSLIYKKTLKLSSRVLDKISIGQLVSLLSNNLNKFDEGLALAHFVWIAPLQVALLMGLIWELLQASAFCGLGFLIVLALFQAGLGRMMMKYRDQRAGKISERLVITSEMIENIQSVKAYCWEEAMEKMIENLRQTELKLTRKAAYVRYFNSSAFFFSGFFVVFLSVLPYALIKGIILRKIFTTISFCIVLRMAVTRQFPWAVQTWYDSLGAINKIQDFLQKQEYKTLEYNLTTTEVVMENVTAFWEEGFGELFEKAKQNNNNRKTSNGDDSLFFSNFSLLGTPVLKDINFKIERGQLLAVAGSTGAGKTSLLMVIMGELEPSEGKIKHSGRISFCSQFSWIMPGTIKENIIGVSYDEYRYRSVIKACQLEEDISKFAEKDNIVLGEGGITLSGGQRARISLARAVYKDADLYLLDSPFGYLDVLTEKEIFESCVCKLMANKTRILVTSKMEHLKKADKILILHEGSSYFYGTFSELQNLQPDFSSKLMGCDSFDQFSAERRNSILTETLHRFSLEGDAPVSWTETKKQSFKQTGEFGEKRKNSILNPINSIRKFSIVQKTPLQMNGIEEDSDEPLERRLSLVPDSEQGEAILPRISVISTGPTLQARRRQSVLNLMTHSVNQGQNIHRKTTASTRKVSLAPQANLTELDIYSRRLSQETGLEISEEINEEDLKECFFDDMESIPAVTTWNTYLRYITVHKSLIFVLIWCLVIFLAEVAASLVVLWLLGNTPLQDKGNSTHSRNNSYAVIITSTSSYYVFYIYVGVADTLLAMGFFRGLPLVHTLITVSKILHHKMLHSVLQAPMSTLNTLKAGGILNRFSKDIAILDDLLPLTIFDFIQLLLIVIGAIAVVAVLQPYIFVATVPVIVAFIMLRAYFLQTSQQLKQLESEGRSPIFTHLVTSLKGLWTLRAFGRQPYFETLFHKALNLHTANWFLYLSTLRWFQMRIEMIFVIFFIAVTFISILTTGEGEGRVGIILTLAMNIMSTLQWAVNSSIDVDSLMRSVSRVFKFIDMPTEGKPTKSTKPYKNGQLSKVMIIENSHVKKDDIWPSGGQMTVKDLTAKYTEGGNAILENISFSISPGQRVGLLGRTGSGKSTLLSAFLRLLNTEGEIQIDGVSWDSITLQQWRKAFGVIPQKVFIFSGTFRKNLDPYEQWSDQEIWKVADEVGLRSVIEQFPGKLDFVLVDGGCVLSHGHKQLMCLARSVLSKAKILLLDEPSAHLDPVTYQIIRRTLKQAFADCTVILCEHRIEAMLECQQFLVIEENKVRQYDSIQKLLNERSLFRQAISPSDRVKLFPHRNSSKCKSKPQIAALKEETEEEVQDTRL
HBE2 Activity at 3 μM (%) [1],"HBE2 Activity at 3 μM (%) (3 μM, with 44 nM potentiator)",SMILES,other results
+++ (+++ is >60+),–,Cc1cccc(C)c1-c1cc2nc(n1)NS(=O)(=O)c1cccc(c1)C(=O)N(Cc1cccc(N3CCC[C@H]3C)n1)[C@H](CCC(C)(C)C)CO2 [Compound 1789],–
+++ (+++ is >60+),–,Cc1cccc(C)c1-c1cc2nc(n1)NS(=O)(=O)c1cccc(c1)C(=O)N(Cc1cncc(N3CCCC[C@H]3C)n1)[C@@H](C1CC(C)(C)C1)CO2 [Compound 1898],–
+++ (+++ is >60+),–,Cc1cccc(C)c1-c1cc2nc(n1)NS(=O)(=O)c1cccc(c1)C(=O)N(Cc1ccc3nc(C(C)C)n(C)c3n1)[C@H](COC(C)C)CO2 [Compound 1930],–
+++ (+++ is >60+),–,Cc1cccc(C)c1-c1cc2nc(n1)NS(=O)(=O)c1cccc(c1)C(=O)N(Cc1cncc(N3CCC(C)(C)[C@H]3C)n1)[C@H](CC(C)(C)C)CO2 (stereo in doubt) [Compound 1723],–
++ (++ is 30-60%),–,"Cc1cccc(C)c1-c1cc2nc(n1)NS(=O)(=O)c1cccc(c1)C(=O)N(Cc1cncc(N3CCCC[C@H]3C)n1)[C@@H](CCC(C)(C)F)CO2 (single isomer, unassigned) [Compound 1328]",–
+++ (+++ is >60+),–,Cc1cccc(C)c1-c1cc2nc(n1)NS(=O)(=O)c1cccc(c1)C(=O)N(Cc1cncc(N3CCCC[C@H]3C)n1)[C@H](COC1CC1)CO2 [Compound 1908],–
–,+++ (+++ is >60+),Cc1cccc(C)c1-c1cc2nc(n1)NS(=O)(=O)c1cccc(c1)C(=O)N(Cc1cncc(N(C)C3CCC3)n1)[C@H](CC(C)(C)C(F)(F)F)CO2 [Compound 1689],EC50 (with 44 nM potentiator): < 1 µM; Emax (with 44 nM potentiator): > 60%
–,+++ (+++ is >60+),CC(=O)N(C)c1cncc(CN2C(=O)c3cccc(c3)S(=O)(=O)Nc3nc(cc(-c4c(C)cccc4C)n3)OC[C@H]2CC(C)(C)C)n1 [Compound 1581],–
+++ (+++ is >60+),–,Cc1cccc(C)c1-c1cc2nc(n1)NS(=O)(=O)c1cccc(c1)C(=O)N(Cc1cncc(N3CCC[C@H]3C(C)C)n1)[C@H](CCC(C)(C)C)CO2 [Compound 1716],EC50 [2]: < 1 µM; Emax (with 44 nM potentiator): > 60%
+++ (+++ is >60+),–,Cc1cccc(C)c1-c1cc2nc(n1)NS(=O)(=O)c1cccc(c1)C(=O)N(Cc1cncc(N(C)C3CCC3)n1)[C@H](CC(C)C)CCO2 [Compound 1770],–
–,+++ (+++ is >60+),Cc1cccc(C)c1-c1cc2nc(n1)NS(=O)(=O)c1cccc(c1)C(=O)N(Cc1ncc(OC(C)C)cn1)[C@H]([C@@H](C)C(C)C)CO2 (stereo in doubt) [Compound 1572],–
+++ (+++ is >60+),–,Cc1cccc(C)c1-c1cc2nc(n1)NS(=O)(=O)c1cccc(c1)C(=O)N(Cc1cncc(N(C)C3CCC3)n1)[C@@H]1CCN(CCC(C)(C)C)C[C@H]1O2 [Compound 1766],–
+++ (+++ is >60+),–,"Cc1cccc(C)c1-c1cc2nc(n1)NS(=O)(=O)c1cccc(c1)C(=O)N(Cc1cncc(N3CCCOC4CCC43)n1)[C@H](CC(C)(C)C)CO2 (stereo partly drawn) [Compound 1332, (11R)-6-(2,6-Dimethylphenyl)-11-(2,2-dimethylpropyl)-12-[[6-(2-oxa-6-azabicyclo[5.2.0]nonan-6-yl)pyrazin-2-yl]methyl]-2,2-dioxo-9-oxa-2λ^6-thia-3,5,12,19-tetrazatricyclo[12.3.1.14,8]nonadeca-1(18),4(19),5,7,14,16-hexaen-13-one]",–
+++ (+++ is >60+),–,Cc1cccc(C)c1-c1cc2nc(n1)NS(=O)(=O)c1cccc(c1)C(=O)N(Cc1cncc(N(C)C3CCC3)n1)[C@H](C1CC(C)(C)C1)CO2 (stereo in doubt) [Compound 1896],–
+++ (+++ is >60+),–,Cc1cccc(C)c1-c1cc2nc(n1)NS(=O)(=O)c1cccc(c1)C(=O)N(Cc1cncc(N3CCC[C@H]3C3CC3)n1)[C@H](CC1CCCCC1)CO2 [Compound 1866],–
+++ (+++ is >60+),–,"Cc1cccc(C)c1-c1cc2nc(n1)NS(=O)(=O)c1cccc(c1)C(=O)N(Cc1cncc(N3CCCC3C)n1)[C@H](C1CC(C)(C)C1)CO2 (single isomer, unassigned) [Compound 1338]",–
+++ (+++ is >60+),–,Cc1cccc(C)c1-c1cc2nc(n1)NS(=O)(=O)c1cccc(c1)C(=O)N(Cc1cccc(N3CCC[C@H]3C)n1)[C@H](COC(C)C)CO2 [Compound 1954],–
+++ (+++ is >60+),–,Cc1cccc(C)c1-c1cc2nc(n1)NS(=O)(=O)c1cccc(c1)C(=O)N(Cc1cncc(C3CCC3)n1)[C@H](CCC(C)(C)C)CO2 [Compound 1852],–
–,+++ (+++ is >60+),CC[C@@]1(COC)CCCN1c1cccc(CN2C(=O)c3cccc(c3)S(=O)(=O)Nc3nc(cc(-c4c(C)cccc4C)n3)OC[C@H]2CC(C)(C)C)n1 [Compound 1617],–
–,+++ (+++ is >60+),COC[C@H]1C[C@H](N(C)c2cncc(CN3C(=O)c4cccc(c4)S(=O)(=O)Nc4nc(cc(-c5c(C)cccc5C)n4)OC[C@H]3CC(C)(C)C)n2)C1 [Compound 1620],–

HBE2 Activity at 3 μM (%) [1],"HBE2 Activity at 3 μM (%) (3 μM, with 44 nM potentiator)",SMILES,other results
–,+++ (+++ is >60+),CC(=O)N(C)c1cccc(CN2C(=O)c3cccc(c3)S(=O)(=O)Nc3nc(cc(-c4c(C)cccc4C)n3)OC[C@H]2CC(C)(C)C)n1 [Compound 1583],–
–,+++ (+++ is >60+),Cc1cccc(C)c1-c1cc2nc(n1)NS(=O)(=O)c1cccc(c1)C(=O)N(Cc1cncc(N(C)CCC(C)C)n1)[C@H](CC(C)(C)C)CO2 [Compound 1696],–
+++ (+++ is >60+),–,Cc1cccc(C)c1-c1cc2nc(n1)NS(=O)(=O)c1cccc(c1)C(=O)N(Cc1cncc(N3CCC[C@H]3C)n1)[C@H](CC1CC1)CO2 [Compound 1787],–
+++ (+++ is >60+),–,COC1(CN(C)c2cncc(CN3C(=O)c4cccc(c4)S(=O)(=O)Nc4nc(cc(-c5c(C)cccc5C)n4)OC[C@H]3CC(C)(C)C)n2)CCC1 [Compound 1758],–
+++ (+++ is >60+),–,Cc1cccc(C)c1-c1cc2nc(n1)NS(=O)(=O)c1cccc(c1)C(=O)N(Cc1cncc(N(C)CC(C)(C)C)n1)[C@H](CCC1CC1)CO2 [Compound 1719],EC50 [2]: < 1 µM; Emax (with 44 nM potentiator): > 60%
–,+++ (+++ is >60+),Cc1cccc(C)c1-c1cc2nc(n1)NS(=O)(=O)c1cccc(c1)C(=O)N(Cc1cncc(N3CCC34COC4)n1)[C@H](CC(C)(C)C)CO2 [Compound 1624],–
+++ (+++ is >60+),–,Cc1cccc(C)c1-c1cc2nc(n1)NS(=O)(=O)c1cccc(c1)C(=O)N(Cc1cncc(N(C)CC(C)(C)F)n1)[C@H](CCC(C)(C)C)CO2 [Compound 1818],–
+++ (+++ is >60+),–,Cc1cccc(C)c1-c1cc2nc(n1)NS(=O)(=O)c1cccc(c1)C(=O)N(Cc1cncc(N3CCC[C@@H]3C3CC3)n1)[C@H](COC1CC1)CO2 (stereo in doubt) [Compound 1891],–
–,+++ (+++ is >60+),Cc1cccc(C)c1-c1cc2nc(n1)NS(=O)(=O)c1cccc(c1)C(=O)N(Cc1cncc(N3CC4OCC[C@@H]43)n1)[C@H](CC(C)(C)C)CO2 (stereo in doubt) [Compound 1628],–
–,+++ (+++ is >60+),COC[C@@H]1CCN1c1ccnc(CN2C(=O)c3cccc(c3)S(=O)(=O)Nc3nc(cc(-c4c(C)cccc4C)n3)OC[C@H]2CC(C)(C)C)n1 [Compound 1553],–
+++ (+++ is >60+),–,Cc1cccc(C)c1-c1cc2nc(n1)NS(=O)(=O)c1cccc(c1)C(=O)N(Cc1cncc(N3CCCC[C@H]3C)n1)[C@H](CC1(C)CCC1)CO2 [Compound 1744],–
+++ (+++ is >60+),–,Cc1cccc(C)c1-c1cc2nc(n1)NS(=O)(=O)c1cc(n(C)n1)C(=O)N(Cc1cncc(N3CCC[C@H]3C)n1)[C@H](CC(C)(C)C)CO2 [Compound 1945],–
+++ (+++ is >60+),–,Cc1cccc(C)c1-c1cc2nc(n1)NS(=O)(=O)c1cccc(c1)C(=O)N(Cc1ncc(OC(C)C)cn1)[C@H](COC(C)C)CO2 [Compound 1957],–
–,+++ (+++ is >60+),Cc1cccc(C)c1-c1cc2nc(n1)NS(=O)(=O)c1cccc(c1)C(=O)N(Cc1cncc(N(C)C3CCC3)n1)[C@H](CC1(C)CCC1)CO2 [Compound 1683],EC50 (with 44 nM potentiator): < 1 µM; Emax (with 44 nM potentiator): > 60%
+++ (+++ is >60+),–,COC[C@@H]1CCN1c1cncc(CN2C(=O)c3cccc(c3)S(=O)(=O)Nc3nc(cc(-c4c(C)cccc4C)n3)OC[C@H]2CC2CC2)n1 [Compound 1786],–
+++ (+++ is >60+),–,Cc1cccc(C)c1-c1cc2nc(n1)NS(=O)(=O)c1cccc(c1)C(=O)N(Cc1cncc(N3CCCC[C@H]3C)n1)[C@H](CCC(C)(C)C)CO2 [Compound 1725],EC50 [2]: < 1 µM; Emax (with 44 nM potentiator): > 60%
–,+++ (+++ is >60+),Cc1cccc(C)c1-c1cc2nc(n1)NS(=O)(=O)c1cccc(c1)C(=O)N(Cc1cncc(N(C)C3CCC3)n1)[C@H](CC(C)C)CO2 [Compound 1671],EC50 (with 44 nM potentiator): < 1 µM; Emax (with 44 nM potentiator): > 60%
–,+++ (+++ is >60+),CCN(c1nc(CN2C(=O)c3cccc(c3)S(=O)(=O)Nc3nc(cc(-c4c(C)cccc4C)n3)OC[C@H]2CC(C)(C)C)co1)C1CCC1 [Compound 1645],–
+++ (+++ is >60+),–,Cc1cccc(C)c1-c1cc2nc(n1)NS(=O)(=O)c1cccc(c1)C(=O)N(Cc1ncc(N3CCC(C)(C)C3)cn1)[C@H](COC(C)C)CO2 [Compound 1955],–
